Measurements published in ChEMBL document CHEMBL1201862, “PubChem BioAssay data set” (2004).
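Compound exposure: 48 hours, 5 concentrations, 96-well plates. Abbreviation: GI50, concentration required for 50% inhibition of growth.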 Calls of active or inactive are those of the source. Rule as the data show it: active = GI50 up to about 1.1 µM and inactive = higher. Square brackets hold non-standard residues; d marks the D form. Peptide text beside a SMILES is read from it. Phe(4-Cl) = N[CH](Cc1ccc(Cl)cc1)C(=O)O; 2Nal = N[CH](Cc1ccc2ccccc2c1)C(=O)O; 3Pal = N[CH](Cc1cccnc1)C(=O)O

Key:
Assay in all cases: growth of human tumour cells (NCI), 48 h
A549 = tested on: A549
ACHN = tested on: ACHN
CAKI-1 = tested on: CAKI-1
CCRF-CEM = tested on: CCRF-CEM
DU-145 = tested on: DU-145
HL-60 = tested on: HL-60
IGROV-1 = tested on: IGROV-1
M14 = tested on: M14
MDA-MB-435 = tested on: MDA-MB-435
NCI-H226 = tested on: NCI-H226
NCI-H460 = tested on: NCI-H460
NCI/ADR-RES = tested on: NCI/ADR-RES
OVCAR-8 = tested on: OVCAR-8
SF-295 = tested on: SF-295
SK-MEL-5 = tested on: SK-MEL-5
SN12C = tested on: SN12C
SNB-75 = tested on: SNB-75
SW-620 = tested on: SW-620
TK-10 = tested on: TK-10
UACC-257 = tested on: UACC-257

Structure (SMILES)	GI50 (A549)	GI50 (ACHN)	GI50 (CAKI-1)	GI50 (CCRF-CEM)	GI50 (DU-145)	GI50 (HL-60)	GI50 (IGROV-1)	GI50 (M14)	GI50 (MDA-MB-435)	GI50 (NCI-H226)	GI50 (NCI-H460)	GI50 (NCI/ADR-RES)	GI50 (OVCAR-8)	GI50 (SF-295)	GI50 (SK-MEL-5)	GI50 (SN12C)	GI50 (SNB-75)	GI50 (SW-620)	GI50 (TK-10)	GI50 (UACC-257)
NC(=S)NS(=O)(=O)c1ccc(Cl)cc1Cl	> 100 µM (inactive)	> 100 µM (inactive)	> 100 µM (inactive)	> 100 µM (inactive)	> 100 µM (inactive)	> 100 µM (inactive)	> 100 µM (inactive)	> 100 µM (inactive)	> 100 µM (inactive)	> 100 µM (inactive)	> 100 µM (inactive)	> 100 µM (inactive)	> 100 µM (inactive)	> 100 µM (inactive)	> 100 µM (inactive)	> 100 µM (inactive)	> 100 µM (inactive)	> 100 µM (inactive)	> 100 µM (inactive)	> 100 µM (inactive)
CC1=NN(c2cccc(Cl)c2)C(=N/c2nc3ccccc3s2)/C1=C\c1ccccc1O	–	25.6 µM (inactive)	33.7 µM (inactive)	35.9 µM (inactive)	43.8 µM (inactive)	28.1 µM (inactive)	19.7 µM (inactive)	38 µM (inactive)	33.6 µM (inactive)	22.2 µM (inactive)	27.1 µM (inactive)	24 µM (inactive)	27.4 µM (inactive)	30.5 µM (inactive)	19.7 µM (inactive)	–	25.4 µM (inactive)	31.6 µM (inactive)	37.7 µM (inactive)	21.9 µM (inactive)
O=C(Nc1nc2ccc([N+](=O)[O-])cc2[n+]([O-])n1)C(F)(F)F	24.6 µM (inactive)	22 µM (inactive)	57.3 µM (inactive)	26.5 µM (inactive)	37.9 µM (inactive)	12.9 µM (inactive)	18 µM (inactive)	37.3 µM (inactive)	17.6 µM (inactive)	49.8 µM (inactive)	14.3 µM (inactive)	32.4 µM (inactive)	21 µM (inactive)	27.9 µM (inactive)	12.5 µM (inactive)	29.4 µM (inactive)	46.2 µM (inactive)	37.6 µM (inactive)	44.2 µM (inactive)	16.9 µM (inactive)
Cc1cc(N(CCC#N)CCC#N)ccc1C(=N/NC(=O)c1cc(Cl)ccc1O)/N=N/c1cccc(Cl)c1	17.1 µM (inactive)	13 µM (inactive)	17.9 µM (inactive)	4.41 µM (inactive)	18.1 µM (inactive)	4.48 µM (inactive)	1.4 µM (inactive)	15.5 µM (inactive)	27.3 µM (inactive)	18.8 µM (inactive)	6.27 µM (inactive)	16.3 µM (inactive)	12.1 µM (inactive)	22 µM (inactive)	13.7 µM (inactive)	19.1 µM (inactive)	13.5 µM (inactive)	17.8 µM (inactive)	16.5 µM (inactive)	15.2 µM (inactive)
CC(C(=O)O)C1Nc2ccccc2NC1=O (stereo not given)	> 100 µM (inactive)	> 100 µM (inactive)	> 100 µM (inactive)	14.2 µM (inactive)	> 100 µM (inactive)	23.3 µM (inactive)	> 100 µM (inactive)	> 100 µM (inactive)	> 100 µM (inactive)	> 100 µM (inactive)	> 100 µM (inactive)	> 100 µM (inactive)	> 100 µM (inactive)	> 100 µM (inactive)	> 100 µM (inactive)	–	> 100 µM (inactive)	> 100 µM (inactive)	> 100 µM (inactive)	> 100 µM (inactive)
COc1ccc2[nH]c3nnc(N)c-3nc2c1	4.14 µM (inactive)	3.33 µM (inactive)	5.66 µM (inactive)	9.31 µM (inactive)	7.55 µM (inactive)	2.13 µM (inactive)	2.59 µM (inactive)	12.3 µM (inactive)	10.2 µM (inactive)	3.85 µM (inactive)	7.46 µM (inactive)	7.01 µM (inactive)	5.62 µM (inactive)	7.66 µM (inactive)	8.09 µM (inactive)	18.4 µM (inactive)	6.79 µM (inactive)	9.4 µM (inactive)	11.3 µM (inactive)	17.1 µM (inactive)
Cc1cc(O)c(C(C)C)cc1CN1CCCCC1	> 100 µM (inactive)	> 100 µM (inactive)	> 100 µM (inactive)	> 100 µM (inactive)	> 100 µM (inactive)	> 100 µM (inactive)	> 100 µM (inactive)	> 100 µM (inactive)	> 100 µM (inactive)	> 100 µM (inactive)	> 100 µM (inactive)	> 100 µM (inactive)	> 100 µM (inactive)	> 100 µM (inactive)	> 100 µM (inactive)	> 100 µM (inactive)	> 100 µM (inactive)	> 100 µM (inactive)	> 100 µM (inactive)	> 100 µM (inactive)
Cc1cc(S(N)(=O)=O)c(S/C(=N\Nc2ccc([N+](=O)[O-])cc2)c2ccc(Cl)cc2)cc1Cl	2.55 µM (inactive)	2.96 µM (inactive)	3.42 µM (inactive)	3.56 µM (inactive)	2.19 µM (inactive)	44.3 µM (inactive)	3.44 µM (inactive)	4.09 µM (inactive)	2.27 µM (inactive)	2.22 µM (inactive)	2.17 µM (inactive)	2.64 µM (inactive)	–	2.11 µM (inactive)	3.48 µM (inactive)	3.23 µM (inactive)	1.83 µM (inactive)	3.22 µM (inactive)	1.79 µM (inactive)	2.72 µM (inactive)
COc1cc(Cn2c3c(c4c(C(=O)NCCN(C)C)c(O)ccc42)C(=O)c2ccccc2C3=O)cc(OC)c1	1.88 µM (inactive)	1.48 µM (inactive)	1.68 µM (inactive)	0.601 µM (active)	1.67 µM (inactive)	2.04 µM (inactive)	1.73 µM (inactive)	1.73 µM (inactive)	1.75 µM (inactive)	6.87 µM (inactive)	1.79 µM (inactive)	2.32 µM (inactive)	1.91 µM (inactive)	1.92 µM (inactive)	1.67 µM (inactive)	1.85 µM (inactive)	1.91 µM (inactive)	–	1.61 µM (inactive)	1.97 µM (inactive)
COC(=O)/C=C/N1CC1	> 10 µM (inactive)	> 10 µM (inactive)	> 10 µM (inactive)	> 10 µM (inactive)	> 10 µM (inactive)	8.63 µM (inactive)	1.45 µM (inactive)	> 10 µM (inactive)	> 10 µM (inactive)	> 10 µM (inactive)	> 10 µM (inactive)	> 10 µM (inactive)	> 10 µM (inactive)	> 10 µM (inactive)	> 10 µM (inactive)	> 10 µM (inactive)	3.48 µM (inactive)	–	4.09 µM (inactive)	> 10 µM (inactive)
Cc1nc(C(N)=S)sc1C(/C=C/c1ccc(Cl)c(Cl)c1)=N/NC(C)(C)C	> 100 µM (inactive)	> 100 µM (inactive)	> 100 µM (inactive)	32.8 µM (inactive)	> 100 µM (inactive)	61.8 µM (inactive)	> 100 µM (inactive)	–	> 100 µM (inactive)	56.5 µM (inactive)	> 100 µM (inactive)	> 100 µM (inactive)	> 100 µM (inactive)	> 100 µM (inactive)	> 100 µM (inactive)	> 100 µM (inactive)	> 100 µM (inactive)	> 100 µM (inactive)	> 100 µM (inactive)	> 100 µM (inactive)
CC(=O)NC(Cc1ccc2ccccc2c1)C(=O)NC(Cc1ccc(Cl)cc1)C(=O)NC(Cc1cccnc1)C(=O)NC(CO)C(=O)NC(Cc1ccc(O)cc1)C(=O)NC(CCCN=C(N)N)C(=O)NC(CC(C)C)C(=O)NC(CCCN=C(N)N)C(=O)N1CCCC1C(=O)NC(C)C(N)=O (stereo not given) (Ac-[2Nal][Phe(4-Cl)][3Pal]SYRLRPA-NH2; configuration not given here)	> 100 µM (inactive)	> 100 µM (inactive)	> 100 µM (inactive)	> 100 µM (inactive)	> 100 µM (inactive)	> 100 µM (inactive)	> 100 µM (inactive)	> 100 µM (inactive)	82.8 µM (inactive)	> 100 µM (inactive)	95.5 µM (inactive)	> 100 µM (inactive)	> 100 µM (inactive)	–	94 µM (inactive)	> 100 µM (inactive)	88.9 µM (inactive)	> 100 µM (inactive)	> 100 µM (inactive)	> 100 µM (inactive)
Cc1nc2ccc(Cl)cc2c2c1CCN2c1ccccc1	15 µM (inactive)	16.9 µM (inactive)	11.5 µM (inactive)	5.62 µM (inactive)	19.5 µM (inactive)	2.72 µM (inactive)	14.3 µM (inactive)	–	7.62 µM (inactive)	7.89 µM (inactive)	7.74 µM (inactive)	11.7 µM (inactive)	15 µM (inactive)	5.47 µM (inactive)	7.53 µM (inactive)	0.975 µM (active)	23.7 µM (inactive)	18.6 µM (inactive)	12.7 µM (inactive)	15.2 µM (inactive)
CCN(CC)S(=O)(=O)c1ccc2[nH]c(NC(=O)OC)nc2c1	94.6 µM (inactive)	–	> 100 µM (inactive)	25.9 µM (inactive)	> 100 µM (inactive)	12.9 µM (inactive)	32.4 µM (inactive)	47.6 µM (inactive)	15.3 µM (inactive)	> 100 µM (inactive)	49.2 µM (inactive)	> 100 µM (inactive)	45.1 µM (inactive)	85.7 µM (inactive)	98.9 µM (inactive)	> 100 µM (inactive)	42.6 µM (inactive)	33.7 µM (inactive)	6.47 µM (inactive)	8.02 µM (inactive)
